# Non-standard residues stand in square brackets, D forms with d. Residues, ends and D or L forms follow the SMILES beside them.
# How the values were obtained:
# MYB:CBP/P300 complex = experiment: Co-immunoprecipitation of MYB:CBP/P300 complex from MV-411 cells; assay type: binding, human; details: 20 μM, immunoprecipitation with anti-MYB, 3 h, 4 °C, western blot
# Experimental: Cells were lysed in RIPA buffer (Thermo Fisher) supplemented with a protease inhibitor mix comprised of AEBSF (0.5 mM concentration, Santa Cruz, SC-202041B), Bestatin (0.01 mM, Fisher/Alfa Aesar, J61106-MD), Leupeptin (0.1 mM, Santa Cruz, SC-295358B), and Pepstatin (0.001 mM, Santa Cruz, SC-45036A). Lysates were mechanically disrupted using Covaris S220 adaptive focused sonicator, according to the manufacturer’s instructions (Covaris, Woburn, CA). Lysates were cleared by centrifugation for 15 min at 18,000 × g and clarified lysates were quantified using the bicinchoninic acid assay (Pierce). Clarified lysates (20 μg of protein) were resolved using sodium dodecyl sulfate-polyacrylamide gel electrophoresis, and electroeluted using the Immobilon FL PVDF membranes (Millipore, Billerica, MA, USA). Membranes were blocked using the Odyssey Blocking buffer (Li-Cor, Lincoln, Nebraska, USA). The following primary antibodies were used as indicated: anti-MYB (1:1000, 05-175, Millipore), anti-CBP (1:1000, PA1-847, Invitrogen), anti-BCL2 (1:1000, 200-401-222, Rockland), anti-β actin (1:1000, 8H10D10, Cell Signaling). […] Blotted membranes were visualized using secondary antibodies conjugated to IRDye 800CW or IRDye 680RD (Goat anti-rabbit, 1:15,000, and goat anti-mouse, 1:15,000) and the Odyssey CLx fluorescence scanner, according to manufacturer’s instructions (Li-Cor, Lincoln, Nebraska, USA). […]
# MV-411 cells [1] = experiment: Flow cytometric analysis of apoptosis; assay type: cell-based, human; details: 20 μM, 24 h, flow cytometry, p = 5.4e-3
# Experimental: Cells were resuspended to a concentration of 1 × 10^6 cells were plated in triplicate in a 12-well tissue culture plate. For assessment of annexin V staining, cells were washed with PBS and then resuspended in PBS with Annexin V-APC (BioLegend) and propidium iodide at a dilution of 1:1000. For intracellular detection of cleaved caspase 3, cells were fixed and permeabilized using the BD Cytofix/Cytoperm Fixation/Permeabilization solution according to the manufacturer’s instructions (BD Biosciences). Cells were then stained using the Alexa Fluor 647-conjugated anti-active caspase-3 (BD Biosciences) at a dilution of 1:50. Cells were incubated for 30 minutes room temperature in the dark, washed, and then analyzed using the BD LSRFortessa cell analyzer. For assessment of differentiation, cells were stained using the anti-human CD14 PE at a dilution of 1:20 (Affymetrix eBiosciences) and anti-human CD66b at a dilution of 1:20 (Affymetrix eBiosciences).
# MV411 and MOLM-13 cells = experiment: Western blot of BCL2 protein; assay type: cell-based, human; details: 20 μM, 6 hours and 24 hours
# Experimental: Cells were lysed in RIPA buffer (Thermo Fisher) supplemented with a protease inhibitor mix comprised of AEBSF (0.5 mM concentration, Santa Cruz, SC-202041B), Bestatin (0.01 mM, Fisher/Alfa Aesar, J61106-MD), Leupeptin (0.1 mM, Santa Cruz, SC-295358B), and Pepstatin (0.001 mM, Santa Cruz, SC-45036A). Lysates were mechanically disrupted using Covaris S220 adaptive focused sonicator, according to the manufacturer’s instructions (Covaris, Woburn, CA). Lysates were cleared by centrifugation for 15 min at 18,000 × g and clarified lysates were quantified using the bicinchoninic acid assay (Pierce). Clarified lysates (20 μg of protein) were resolved using sodium dodecyl sulfate-polyacrylamide gel electrophoresis, and electroeluted using the Immobilon FL PVDF membranes (Millipore, Billerica, MA, USA). Membranes were blocked using the Odyssey Blocking buffer (Li-Cor, Lincoln, Nebraska, USA). […] Blotted membranes were visualized using secondary antibodies conjugated to IRDye 800CW or IRDye 680RD (Goat anti-rabbit, 1:15,000, and goat anti-mouse, 1:15,000) and the Odyssey CLx fluorescence scanner, according to manufacturer’s instructions (Li-Cor, Lincoln, Nebraska, USA).
# Supplementary Figure 9. BCL2 expression as measured by Western blot in MV411 and […]
# ImageJ. BCL2 protein expression is quantified as a fraction of its respective PBS control […]
# MV-411 cells [2] = experiment: Growth and survival of MV-411 cells with ectopic BCL2 (MIG-BCL2) or empty MIG vector; assay type: cell-based, human; details: 20 μM
# Experimental: Cells were resuspended and plated at a concentration of 2 × 10^5 cells in 200 μl in 96-well tissue culture plates. Media with peptides was replaced every 48 h. To assess the number of viable cells, cells were resuspended in PBS and 10 µl of suspension was mixed in a 1:1 ratio with 0.4% Trypan Blue (Thermo Fisher) and counted using a hemacytometer (Hausser Scientific, Horsham, PA, USA). To assess viability using an ATP-based assay, cell viability was assessed using the CellTiter-Glo Luminescent Viability assay, according to the manufacturer’s instructions (Promega). Luminescence was recorded using the Infinite M1000Pro plate reader using integration time of 250 ms (Tecan).
# The MIG-BCL2 vector was packaged using pUMVc and pCMV-VSVG vectors in HEK 293T cells and the FuGENE 6 transfection reagent, according to manufacturer’s instructions (Promega). Virus supernatant was collected at 48 and 72 h post transfection, pooled, filtered and stored at −80 °C. Cells were transduced with virus particles at a multiplicity of infection of 1 by spin inoculation for 90 min at 3500 rpm at 35 °C in the presence of 8 μg/ml hexadimethrine bromide. Two days after transduction, cells were isolated using fluorescence-activated cell sorting (FACSAria III, BD Bioscience, San Jose, CA, USA).
compound,measurement,setting,value
CC[C@@H](C)[C@@H](NC(=O)[C@@H](CCCCN)NC(=O)[C@@H](CCC(=O)O)NC(=O)[C@@H](CC(C)C)NC(=O)[C@@H](CCC(=O)O)NC(=O)[C@@H](CC(C)C)NC(=O)[C@@H](CC(C)C)NC(=O)[C@@H](CC(C)C)NC(=O)[C@@H](CCSC)NC(=O)[C@@H](CO)NC(=O)[C@H](NC(=O)[C@@H](CCC(=O)O)NC(=O)[C@@H](CC(N)=O)NC(=O)[C@@H](CCC(=O)O)NC(=O)[C@@H](CC(C)C)NC(=O)[C@@H](CCCCN)NC(C)=O)[C@H](C)O)C(=O)N[C@H](CCCNC(=N)N)C(=O)N[C@H](CCCCN)C(=O)NCC(=O)NCC(=O)N[C@H](CCCNC(=N)N)C(=O)N[C@H](CCCNC(=N)N)C(=O)N[C@H](CCCNC(=N)N)C(=O)N[C@H](CCC(N)=O)C(=O)N[C@H](CCCNC(=N)N)C(=O)N[C@H](CCCNC(=N)N)C(=O)N[C@H](CCCCN)C(=O)N[C@H](CCCCN)C(=O)N[C@H](CCCNC(=N)N)C(=O)NCC(=O)N[C@H](Cc1ccc(O)cc1)C(N)=O [MYBMIM] (Ac-[dK][dL][dE][dN][dE][dT][dS][dM][dL][dL][dL][dE][dL][dE][dK][dI][dR][dK]GG[dR][dR][dR][dQ][dR][dR][dK][dK][dR]G[dY]-NH2),Dissociation of the cellular MYB:CBP/P300 complex,MYB:CBP/P300 complex,significant dissociation
same,Apoptosis by cell surface annexin V and intracellular caspase 3 cleavage,MV-411 cells [1],significant apoptosis
same,BCL2 protein abundance,MV411 and MOLM-13 cells,significant albeit modest decrease
same,Cell growth and survival of mock-treated and MIG empty vector control transduced MV-411 cells,MV-411 cells [2]; p = 0.003,significant reduction of cell growth and survival
same,MYBMIM-induced apoptosis in cells ectopically overexpressing BCL2,MV-411 cells [2]; MV-411 MIG-BCL2 cells,"largely, though not completely, rescued"
